{"source": "patent CN104013603A", "about": "“一种烟碱缓释贴剂” (Shanghai Tobacco Group Co Ltd, priority 2014, dated 2014)", "origin": "cited, not measured here", "key": {"[1]": {"conditions": "background statement"}, "[2]": {"conditions": "background statement", "remark": "listed apart in the source"}}}
{"smiles": "CN1CCC[C@H]1c1cccnc1", "note": "[尼古丁, (S)-3-(1-Methyl-2-pyrroli-dinyl)pyridine]", "values": [{"measurement": "penetration into skin", "setting": "[1]", "result": "可渗入皮肤"}, {"measurement": "solubility", "setting": "[2]", "result": "可溶于水、乙醇、氯仿、乙醚、油类"}]}
